Results from US20210024542A1 (Torcept Therapeutics, Inc., priority 2018, published 2021).

Legend:
CEM-C1 = test: OncoPanel cell proliferation assay, CEM-C1; type: cell-based, human; settings: Homo sapiens, 72 h; CEM-C1, 3-day incubation; read-out: Cell Count IC50
Protocol: (§1) Cells were grown in RPMI 1640, 10% FBS, 2 mM L-alanyl-L-glutamine, 1 mM Na pyruvate, or a special medium. Cells were seeded into 384-well plates and incubated in a humidified atmosphere of 5% CO2 at 37° C. Compounds were added the day following cell seeding. At the same time, a time zero untreated cell plate was generated. After a 3-day incubation period, cells were fixed and stained to allow fluorescence imaging of nuclei. Compounds (1 mM stock solutions) were serially diluted in half-log steps from the highest test concentration ([…]), and assayed over 10 concentrations with a maximum assay concentration of 0.1% DMSO. Automated fluorescence microscopy was carried out using a Molecular Devices ImageXpress Micro XL high-content imager, and images were collected with a 4× objective. 16-bit TIFF images were acquired and analyzed with MetaXpress 5.1.0.41 software.
(§2) Cell proliferation was measured by the fluorescence intensity of an incorporated nuclear dye. The output is referred to as the relative cell count, where the measured nuclear intensity is transformed to percent of control (POC) using the following formula: […]
(§3) Cellular response parameters were calculated using nonlinear regression to a sigmoidal single-site dose response model:
(§4) Where y is a response measured at concentration x, A and B are the lower and upper limits of the response, C is the concentration at the response midpoint (EC50), and D is the Hill Slope (Ref. 1).
(§5) EC50 is the test compound concentration at the curve inflection point or half the effective response (parameter C of the fitted curve solution). GI50 is the concentration needed to reduce the observed growth by half (midway between the curve maximum and the time zero value). “Cell Count Activity Area” is an estimate of the integrated area above the curve (Barretina, et al. The Cancer Cell Line Encyclopedia enables predictive modelling of anticancer drug sensitivity. Nature 483: 603-607). […] In rare instances, values <0 or >10 may be observed. […] Curve-fitting, calculations, and report generation was performed using a custom data reduction engine and MathIQ based software (AIM).

SNU-5 = test: OncoPanel cell proliferation assay, SNU-5; type: cell-based, human; settings: for Relative cell count (%) Mean: SNU-5
Protocol: as §1, with “Cells” for “Cells were grown in RPMI 1640, 10% FBS, 2 mM L-alanyl-L-glutamine, 1 mM Na pyruvate, or a special medium. Cells”
as §2, §3, §4
GI50 is the concentration needed to reduce the observed growth by half (midway between the curve maximum and the time zero value). […] In rare instances, values <0 or >10 may be observed. […] Curve-fitting, calculations, and report generation was performed using a custom data reduction engine and MathIQ based software (AIM).

G-402 = test: OncoPanel cell proliferation assay, G-402; type: cell-based, human; settings: for Relative cell count (%) Mean: G-402
Protocol: as §1, §2, §3, §4, §5

SK-UT-1 = test: OncoPanel cell proliferation assay, SK-UT-1; settings: for Relative cell count (%) Mean: SK-UT-1
Protocol: Cells were seeded into 384-well plates and incubated in a humidified atmosphere of 5% CO2 at 37° C. Compounds were added the day following cell seeding. At the same time, a time zero untreated cell plate was generated. After a 3-day incubation period, cells were fixed and stained to allow fluorescence imaging of nuclei. Compounds (1 mM stock solutions) were serially diluted in half-log steps from the highest test concentration (1 micromol), and assayed over 10 concentrations with a maximum assay concentration of 0.1% DMSO. Automated fluorescence microscopy was carried out using a Molecular Devices ImageXpress Micro XL high-content imager, and images were collected with a 4× objective. 16-bit TIFF images were acquired and analyzed with MetaXpress 5.1.0.41 software.

A101D = test: OncoPanel cell proliferation assay, A101D; type: cell-based, human
Protocol: as §1, §2, §3, §4, §5

AGS = test: OncoPanel cell proliferation assay, AGS; type: cell-based, human
Protocol: as §1, §2, §3, §4, §5

SK-N-AS = test: OncoPanel cell proliferation assay, SK-N-AS; type: cell-based, human
Protocol: as §1, §2, §3, §4, §5

[1] = Homo sapiens, 72 h, 3-day incubation, read-out: Cell Count EC50
[2] = Homo sapiens, 72 h, 3-day incubation, read-out: Cell Count GI50
[3] = Homo sapiens, 72 h, 3-day incubation, read-out: Cell Count IC50

CO[C@H]1C[C@@H]2CC[C@@H](C)[C@@](O)(O2)C(=O)C(=O)N2CCCC[C@H]2C(=O)O[C@H]([C@H](C)C[C@@H]2C[C@@H]3C[C@H]2C[C@H]3O)CC(=O)[C@H](C)/C=C(\C)[C@@H](O)[C@@H](OC)C(=O)[C@H](C)C[C@H](C)/C=C/C=C/C=C/1C [Formula I, 37R-hydroxynorbornylrapamycin]
IC50 (CEM-C1): 391 nM
EC50 (SNU-5; Homo sapiens, 72 h, SNU-5, 3-day incubation, read-out: Cell Count EC50): 2.05 nM
GI50 (SNU-5; Homo sapiens, 72 h, SNU-5, 3-day incubation, read-out: Cell Count GI50): 23.8 nM
IC50 (SNU-5; Homo sapiens, 72 h, SNU-5, 3-day incubation, read-out: Cell Count IC50): > 1000 nM
Cell Count Activity Area (SNU-5; SNU-5, scale 0-10): 2.14
Relative cell count (%) Mean (SNU-5; 1.00E+00 microM): 62.8%
Relative cell count (%) Mean (SNU-5; 1.00E−01 microM): 65.7%
Relative cell count (%) Mean (SNU-5; 1.00E−02 microM): 73.2%
Relative cell count (%) Mean (SNU-5; 1.00E−03 microM): 84.5%
Relative cell count (%) Mean (SNU-5; 1.01E−04 microM): 95.3%
Relative cell count (%) Mean (SNU-5; 3.16E−01 microM): 64.0%
Relative cell count (%) Mean (SNU-5; 3.17E−02 microM): 65.8%
Relative cell count (%) Mean (SNU-5; 3.17E−03 microM): 77.6%
Relative cell count (%) Mean (SNU-5; 3.18E−04 microM): 91.2%
Relative cell count (%) Mean (SNU-5; 3.18E−05 microM): 96.3%
Cell Count Activity Area (G-402; G-402, scale 0-10): 4.95
Relative cell count (%) Mean (G-402; 1.00E+00 microM): 31.5%
Relative cell count (%) Mean (G-402; 1.00E−01 microM): 37.2%
Relative cell count (%) Mean (G-402; 1.00E−02 microM): 41.4%
Relative cell count (%) Mean (G-402; 1.00E−03 microM): 49.2%
Relative cell count (%) Mean (G-402; 1.01E−04 microM): 70.9%
Relative cell count (%) Mean (G-402; 3.16E−01 microM): 34.9%
Relative cell count (%) Mean (G-402; 3.17E−02 microM): 46.6%
Relative cell count (%) Mean (G-402; 3.17E−03 microM): 48.8%
Relative cell count (%) Mean (G-402; 3.18E−04 microM): 54.9%
Relative cell count (%) Mean (G-402; 3.18E−05 microM): 89.9%
EC50 (G-402; Homo sapiens, 72 h, G-402, 3-day incubation, read-out: Cell Count EC50): 0.133 nM
GI50 (G-402; Homo sapiens, 72 h, G-402, 3-day incubation, read-out: Cell Count GI50): 0.332 nM
IC50 (G-402; Homo sapiens, 72 h, G-402, 3-day incubation, read-out: Cell Count IC50): 0.956 nM
EC50 (SK-UT-1; Homo sapiens, SK-UT-1, 72 h, read-out: Cell Count EC50): 0.284 nM
GI50 (SK-UT-1; Homo sapiens, SK-UT-1, 72 h, read-out: Cell Count GI50): 2.01 nM
IC50 (SK-UT-1; Homo sapiens, SK-UT-1, 72 h, read-out: Cell Count IC50): 11.7 nM
Cell Count Activity Area (SK-UT-1; SK-UT-1, scale 0-10): 3.95
Relative cell count (%) Mean (SK-UT-1; 1.00E+00 microM): 50.0%
Relative cell count (%) Mean (SK-UT-1; 1.00E−01 microM): 57.6%
Relative cell count (%) Mean (SK-UT-1; 1.00E−02 microM): 52.2%
Relative cell count (%) Mean (SK-UT-1; 1.00E−03 microM): 72.8%
Relative cell count (%) Mean (SK-UT-1; 1.01E−04 microM): 94.8%
Relative cell count (%) Mean (SK-UT-1; 3.16E−01 microM): 48.7%
Relative cell count (%) Mean (SK-UT-1; 3.17E−02 microM): 53.1%
Relative cell count (%) Mean (SK-UT-1; 3.17E−03 microM): 57.1%
Relative cell count (%) Mean (SK-UT-1; 3.18E−04 microM): 72.6%
Relative cell count (%) Mean (SK-UT-1; 3.18E−05 microM): 98.4%
Relative cell count (%) Mean (A101D; 1.00E+00 microM): 50.8%
Relative cell count (%) Mean (A101D; 1.00E−01 microM): 57.8%
Relative cell count (%) Mean (A101D; 1.00E−02 microM): 54.7%
Relative cell count (%) Mean (A101D; 1.00E−03 microM): 66.8%
Relative cell count (%) Mean (A101D; 1.01E−04 microM): 90.7%
Relative cell count (%) Mean (A101D; 3.16E−01 microM): 52.8%
Relative cell count (%) Mean (A101D; 3.17E−02 microM): 58.0%
Relative cell count (%) Mean (A101D; 3.17E−03 microM): 61.9%
Relative cell count (%) Mean (A101D; 3.18E−04 microM): 78.1%
Relative cell count (%) Mean (A101D; 3.18E−05 microM): 95.8%
EC50 (A101D; [1]): 0.322 nM
GI50 (A101D; [2]): 0.999 nM
IC50 (A101D; [3]): > 1000 nM
Cell Count Activity Area (A101D; scale 0-10): 3.52
Relative cell count (%) Mean (AGS; 1.00E+00 microM): 32.3%
Relative cell count (%) Mean (AGS; 1.00E−01 microM): 39.3%
Relative cell count (%) Mean (AGS; 1.00E−02 microM): 39.1%
Relative cell count (%) Mean (AGS; 1.00E−03 microM): 39.8%
Relative cell count (%) Mean (AGS; 1.01E−04 microM): 58.2%
Relative cell count (%) Mean (AGS; 3.16E−01 microM): 38.3%
Relative cell count (%) Mean (AGS; 3.17E−02 microM): 34.7%
Relative cell count (%) Mean (AGS; 3.17E−03 microM): 40.1%
Relative cell count (%) Mean (AGS; 3.18E−04 microM): 45.6%
Relative cell count (%) Mean (AGS; 3.18E−05 microM): 82.7%
EC50 (AGS; [1]): 0.0635 nM
GI50 (AGS; [2]): 0.136 nM
IC50 (AGS; [3]): 0.186 nM
Cell Count Activity Area (AGS; scale 0-10): 5.50
Relative cell count (%) Mean (SK-N-AS; 1.00E+00 microM): 45.8%
Relative cell count (%) Mean (SK-N-AS; 1.00E−01 microM): 51.0%
Relative cell count (%) Mean (SK-N-AS; 1.00E−02 microM): 53.6%
Relative cell count (%) Mean (SK-N-AS; 1.00E−03 microM): 62.3%
Relative cell count (%) Mean (SK-N-AS; 1.01E−04 microM): 84.8%
Relative cell count (%) Mean (SK-N-AS; 3.16E−01 microM): 48.3%
Relative cell count (%) Mean (SK-N-AS; 3.17E−02 microM): 52.4%
Relative cell count (%) Mean (SK-N-AS; 3.17E−03 microM): 56.7%
Relative cell count (%) Mean (SK-N-AS; 3.18E−04 microM): 77.7%
Relative cell count (%) Mean (SK-N-AS; 3.18E−05 microM): 102.1%
EC50 (SK-N-AS; [1]): 0.283 nM
GI50 (SK-N-AS; [2]): 0.826 nM
IC50 (SK-N-AS; [3]): 7.35 nM
Cell Count Activity Area (SK-N-AS; scale 0-10): 3.99
